Measurements from patent US7179460B2, “Bacterial composition and its use” (priority 2002, dated 2007).

Test system: Bifidobacterium lactis PTA-4802
Assay: Antibiotic sensitivity profile (NCCLS M11-A5 agar dilution MIC)
Format: cell-based
Details: MRS + cysteine agar; sensitivity of strain PTA-4802 to the antibiotic

| Compound | Antibiotic Sensitivity (S/I/R) |
| --- | --- |
| CC1(C)S[C@@H]2[C@H](NC(=O)Cc3ccccc3)C(=O)N2[C@H]1C(=O)O [Penicillin G] | S (MIC <4 ug/ml = Sensitive (S)) |
| Gentamicin | R (MIC >64 ug/ml = Resistant (R)) |
| Neomycin | R (MIC >64 ug/ml = Resistant (R)) |
| Polymyxin B | R (MIC >64 ug/ml = Resistant (R)) |
